Laboratory results: patent US7622441B2, “Sustained release pharmaceutical compounds to prevent abuse of controlled substances” (Shire LLC, priority 2002, dated 2009)
Several values for one entry are separate records, joined by “and”; a condition that tells them apart may be missing. Equal entries are not always repeated. Structures can show the parent of a compound that is named as a salt. Where two headings read alike, the source gives them in different places. Where a SMILES comes first, the peptide text is derived from it. Where no end group is shown, it is not given here. [ ]: non-standard residue; d: D form. The star is where a group is joined. ξ: configuration not given here. X2 = COc1ccc2c3c1OC1C(O*)=CCC4C(C2)N(C)CCC314; ξL = CC(C)CC(N)C(=O)O

What was measured:
[1] = Stability of narcotic conjugates in water (narcotic release, abuse resistance tests); format: physicochemical; conditions: for H2O (1 h, 90 C.) / H2O (24 h, RT): numbers based upon narcotic release; for % Release of Narcotic in Water: neutral pH
Excerpt: It is also possible to further stabilize any unstable conjugates by tethering to a larger peptide. […] The conjugates are also stable at a wide range of pH's.

[2] = Pharmacokinetics of peptide-amphetamine conjugates by oral administration (serum amphetamine by ELISA); conditions: rat
[3] = Pharmacokinetics of narcotic conjugates by oral administration (serum hydrocodone/oxycodone by ELISA); conditions: for Shape of the Curve: rat serum concentration curve vs. parent drug; for Peak Time / % AUC / % Cmax: rat serum; for Peak Time: multiple of parent drug's peak time; for % AUC / % Cmax: vs. equivalent dose of parent drug
male Sprague-Dawley rats = test: Analgesia by paw lick latency (PLL), hot plate nociceptive model, subcutaneous injection; format: in vivo; parameters: Paw Lick Latency: unit not given beside the values; conditions: for PLL: rat hot plate, cutoff time of 45 seconds; for Percent: PLL above basal level compared to HC; for Delta: basal PLL of untreated rats subtracted
[4] = intranasal; for Comments (curve) / Peak Time / % AUC / % Cmax: serum, buffer PBS; for Peak Time: multiple of hydrocodone's peak time; for % AUC / % Cmax: vs. hydrocodone
[5] = rat, oral capsule; 2 hours was the first measurement
in vivo = conditions: Sprague-Dawley, rat, po, 3.6 mg, Serum Concentrations of Individual Rats, oral capsule, dose equal to 3.6 mg naltrexone
[6] = Serum naltrexone levels of rats orally dosed with BB301 polyserine-naltrexone conjugate vs. naltrexone (ELISA); conditions: rat; for Serum Concentrations of Individual Rats: equal dose (3.6 mg naltrexone)
[7] = male, Sprague-Dawley, in vivo, po
[8] = Table 12, 15 min., equivalent dose
[9] = Table 12, 30 min, equivalent dose
[10] = Table 12, Basal (0 h), before treatment
[11] = Sprague-Dawley, in vivo, po, 1.8 mg, Mean Serum Concentrations +/− SD, oral capsule, ½ dose (1.8 mg) at 0 hours and at […]
[12] = Sprague-Dawley, in vivo, po, 3.6 mg
[13] = Sprague-Dawley, in vivo, po, 3.6 mg, Mean Serum Concentrations +/− SD, oral capsule, equal dose at time zero
[14] = oral solution in water, equivalent amount of amphetamine

COc1ccc2c3c1OC1C(OC(=O)C(C)(C)N)=CCC4C(C2)N(C)CCC314 (centres unmarked) [Aib-HC]
H2O (1 h, 90 C.) [1]: 45 | H2O (24 h, RT) [1]: 0

C[C@H](N)Cc1ccccc1 [Amphetamine, d-amphetamine sulfate, reference compound]
AUC(0-t) [2, 7]: 530 ng·h/mL | Cmax [2, 7]: 193 ng/mL

COc1ccc2c3c1OC1C(OC(=O)C4CCCN4C(=O)C(C)NC(=O)OC(C)(C)C)=CCC4C(C2)N(C)CCC314 (stereo not drawn) [Boc-Ala-Pro-HC, Boc-Ala-Pro-Hydrocodone]
Shape of the Curve [3]: ++Clearance | Peak Time [3]: 1X | % AUC [3]: 60% | % Cmax [3]: 97%

COc1ccc2c3c1OC1C(OC(=O)C(CC(C)C)NC(=O)CNC(=O)CNC(=O)CNC(=O)CN)=CCC4C(C2)N(C)CCC314 (stereo not drawn) [GGGGL-HC, Gly-Gly-Gly-Gly-Leu-Hydrocodone] (H-GGGG[ξL]-X2)
Paw Lick Latency (male Sprague-Dawley rats; Table 12, 60, 2× the equivalent dose): 5 | Paw Lick Latency (male Sprague-Dawley rats; Table 12, 60, equivalent dose): 3.6 | Paw Lick Latency (male Sprague-Dawley rats; Table 12, 15 min., 2× the equivalent dose): 3 | Paw Lick Latency (male Sprague-Dawley rats; [8]): 6.8 | Paw Lick Latency (male Sprague-Dawley rats; Table 12, 30 min, 2× the equivalent dose): 5.6 | Paw Lick Latency (male Sprague-Dawley rats; [9]): 5.6 | Paw Lick Latency (male Sprague-Dawley rats; [10]): 7.5 | Paw Lick Latency (male Sprague-Dawley rats; Table 12, Basal (0 h), group given 2× the equivalent dose): 2.2

COc1ccc2c3c1OC1C(OC(=O)C(N)CCC(=O)O)=CCC4C(C2)N(C)CCC314 (centres unmarked) [Glu-HC, 6-O-Glu-Hydrocodone]
% Release of Narcotic in Water ([1]; 0 Hours): 0% | % Release of Narcotic in Water ([1]; 1 Hour): 4% | % Release of Narcotic in Water ([1]; 6 Hours): 19% | % Release of Narcotic in Water ([1]; 24 Hours): 42% | H2O (1 h, 90 C.) [1]: 100 | H2O (24 h, RT) [1]: 79 | Comments (curve) [4]: Flat curve | Peak Time [4]: 6X | % AUC [4]: 60% | % Cmax [4]: 55%

COc1ccc2c3c1OC1C(OC(=O)CN)=CCC4C(C2)N(C)CCC314 (centres unmarked) [Gly-HC, 6-O-Gly-Hydrocodone]
% Release of Narcotic in Water ([1]; 0 Hours): 6% | % Release of Narcotic in Water ([1]; 1 Hour): 8% | % Release of Narcotic in Water ([1]; 6 Hours): 11% | % Release of Narcotic in Water ([1]; 24 Hours): 32% | H2O (1 h, 90 C.) [1]: 63 | H2O (24 h, RT) [1]: 26

COc1ccc2c3c1O[C@H]1C(=O)CC[C@H]4[C@@H](C2)N(C)CC[C@]314 [Hydrocodone]
Comments (curve) [4]: Rapid | Peak Time [4]: 1X | % AUC [4]: 100% | % Cmax [4]: 100% | PLL (male Sprague-Dawley rats; 30 minutes, subcutaneous): 40 | Percent (male Sprague-Dawley rats; 30 minutes): 100% | Delta (male Sprague-Dawley rats; 30 minutes): 34 | PLL (male Sprague-Dawley rats; 45 minutes, subcutaneous): 26.7 | Percent (male Sprague-Dawley rats; 45 minutes): 100% | Delta (male Sprague-Dawley rats; 45 minutes): 19.9 | Paw Lick Latency (male Sprague-Dawley rats; Table 11, 15 min., subcutaneous): 25.5 | Paw Lick Latency (male Sprague-Dawley rats; Table 11, 30 min, subcutaneous): 42.4 | Paw Lick Latency (male Sprague-Dawley rats; Table 11, 45 min., subcutaneous): 36.3 | Paw Lick Latency (male Sprague-Dawley rats; Table 11, 60 min., subcutaneous): 26.6 | Paw Lick Latency (male Sprague-Dawley rats; Table 11, Basal (0 h), before treatment): 5.5 | Paw Lick Latency (male Sprague-Dawley rats; Table 12, 60, equivalent dose): 15.1 | Paw Lick Latency (male Sprague-Dawley rats; [8]): 31.9 | Paw Lick Latency (male Sprague-Dawley rats; [9]): 24.5 | Paw Lick Latency (male Sprague-Dawley rats; [10]): 5.6

CCC(C)C(N)C(=O)OC1=CCC2C3Cc4ccc(OC)c5c4C2(CCN3C)C1O5 (centres unmarked) [Ile-HC]
H2O (1 h, 90 C.) [1]: 46 | H2O (24 h, RT) [1]: 16

COc1ccc2c3c1OC1C(OC(=O)C(CC(C)C)NC(=O)C(CC(C)C)NC(=O)C(N)CC(C)C)=CCC4C(C2)N(C)CCC314 (centres unmarked) [LLL-HC]
Paw Lick Latency (male Sprague-Dawley rats; Table 12, 60, equivalent dose): 3.2 | Paw Lick Latency (male Sprague-Dawley rats; [8]): 5.7 | Paw Lick Latency (male Sprague-Dawley rats; [9]): 3.9 | Paw Lick Latency (male Sprague-Dawley rats; [10]): 4.1

COc1ccc2c3c1O[C@H]1C(OC(=O)[C@@H](N)CC(C)C)=CC[C@H]4[C@@H](C2)N(C)CC[C@]314 [Leu-HC, Leu-Hydrocodone]
H2O (1 h, 90 C.) [1]: 49 | H2O (24 h, RT) [1]: 10

O=C1CC[C@@]2(O)[C@H]3Cc4ccc(O)c5c4[C@@]2(CCN3CC2CC2)[C@H]1O5 [Naltrexone]
time at which serum levels spiked [5]: 2 h | concentration at 12 h (in vivo): 1 ng/mL | concentration at 0.5 h [6, 11]: 72 ng/mL | concentration at 3 h [6, 11]: 13 ng/mL | concentration at 5 h [6, 11]: 4 ng/mL | concentration at 8 h [6, 11]: 68 ng/mL | concentration at 11.5 h ([6]; Sprague-Dawley, in vivo, po, 1.8 mg, Mean Serum Concentrations +/− SD, oral capsule, ½ dose (1.8 mg) at 0 hours and at […], 11.5 hours): 11 ng/mL | concentration at 24 h ([6]; Sprague-Dawley, in vivo, po, 1.8 mg, Mean Serum Concentrations +/− SD, oral capsule, ½ dose (1.8 mg) at 0 hours and at […], 24 hours): 6 ng/mL | AUC(0-t) [6, 12]: 477 ng·h/mL | Cmax [6, 12]: 124 ng/mL | Tmax [6, 12]: 45 min | concentration at 0.5 h [6, 13]: 115 ng/mL | concentration at 3 h [6, 13]: 55 ng/mL | concentration at 5 h [6, 13]: 56 ng/mL | concentration at 8 h [6, 13]: 7 ng/mL | concentration at 12 h ([6]; Sprague-Dawley, in vivo, po, 3.6 mg, Mean Serum Concentrations +/− SD, oral capsule, equal dose at time zero, 12 hours): 2 ng/mL | concentration at 15 h ([6]; Sprague-Dawley, in vivo, po, 3.6 mg, Mean Serum Concentrations +/− SD, oral capsule, equal dose at time zero, 15 hours): 2 ng/mL | concentration at 24 h ([6]; Sprague-Dawley, in vivo, po, 3.6 mg, Mean Serum Concentrations +/− SD, oral capsule, equal dose at time zero, 24 hours): 2 ng/mL | time at which naltrexone serum levels spiked ([6]; oral capsule, equal dose): 0.5 h | Serum Concentrations of Individual Rats ([6]; oral capsule, 12 hours): 2 ng/mL | Serum Concentrations of Individual Rats ([6]; oral capsule, 15 hours): 1 ng/mL and 2 ng/mL | Serum Concentrations of Individual Rats ([6]; oral capsule, 24 hours): 1 ng/ml (2×) and 3 ng/ml and 2 ng/ml

CC(Cc1ccccc1)NC(=O)[C@@H](N)Cc1ccccc1 (some centres unmarked) [Phe-Amp]
Cmax and AUC compared with those of the parent drug ([2]; oral): nearly equal | AUC 0-12 h [2, 14]: 505 ng·h/mL | Cmax [2, 14]: 175 +/− 77

COc1ccc2c3c1OC1C(OC(=O)C(N)Cc4ccccc4)=CCC4C(C2)N(C)CCC314 (centres unmarked) [Phe-HC]
H2O (1 h, 90 C.) [1]: 54

COc1ccc2c3c1O[C@H]1C(OC(=O)[C@@H]4CCCN4)=CC[C@H]4[C@@H](C2)N(C)CC[C@]314 [Pro-HC, 6-O-Pro-Hydrocodone]
% Release of Narcotic in Water ([1]; 0 Hours): 4% | % Release of Narcotic in Water ([1]; 1 Hour): 11% | % Release of Narcotic in Water ([1]; 6 Hours): 25% | % Release of Narcotic in Water ([1]; 24 Hours): 71% | H2O (1 h, 90 C.) [1]: 97 | H2O (24 h, RT) [1]: 71

COc1ccc2c3c1OC1C(OC(=O)OC[C@H]4OC(O)C(O)[C@H]4O)=CCC4[C@@H](C2)N(C)CC[C@]314.Cl (some centres unmarked) [Ribose-HC]
H2O (24 h, RT) [1]: 4 | Shape of the Curve [3]: No change | Peak Time [3]: 1X | % AUC [3]: 106% | % Cmax [3]: 132% | Comments (curve) [4]: No change | Peak Time [4]: 1X | % AUC [4]: 20% | % Cmax [4]: 34% | inhibition of IN absorption ([4]; compound still contained small amounts of free hydrocodone): approximately 80%

CC(Cc1ccccc1)NC(=O)C(N)CO (centres unmarked) [Ser-Amp]
AUC 0-12 h [2, 14]: 290 ng·h/mL | Cmax [2, 14]: 146 +/− 85 | Percent Amphetamine (AUC 0-12 h) ([2]; oral, AUC relative to amphetamine): 55% | Percent Amphetamine (Cmax) ([2]; oral, Cmax relative to amphetamine): 76%

COc1ccc2c3c1OC1C(OC(=O)C(N)CO)=CCC4C(C2)N(C)CCC314 (centres unmarked) [Ser-HC]
H2O (1 h, 90 C.) [1]: 98 | H2O (24 h, RT) [1]: 45

Ala-Pro-Hydrocodone [Ala-Pro-HC]
H2O (1 h, 90 C.) [1]: 100 | H2O (24 h, RT) [1]: 100

Glu5-HC: pentapeptide conjugate of hydrocodone (SEQ ID NO: 2) (EEEEE; also: hydrocodone conjugate)
H2O (1 h, 90 C.) [1]: 53
